Results: patent publication US10647664B2, “Substituted hydroxamic acid compounds” (Duke University, priority 2013, dated 2020)
Values after ≈ are worked out from the molar mass of the structure shown.

Tests used:
V. cholera (P4) = experiment: MIC, V. cholera (P4); assay type: cell-based; set-up: unit not given beside the values
Description: (§1) MICs are determined according to the NCCLS protocol using 96-well plates. Briefly, diluted bacterial cells (10^6 cells/mL) are added into each well of the 96-well plates containing LB medium with 5% DMSO and various concentrations of the compound of disclosure. After incubation of the plates for 22 hours at 37° C., [4,5-dimethylthiazol-2-yl]-2,5-diphenyltetrazolium bromide solution (MTT) is added (final concentration, 0.2 mg/mL) and incubated at 37° C. for another 3 hrs. MIC is determined as the lowest concentration of an antibiotic that prevented color change (yellow to purple).
(§2) Additional results of minimum inhibitory concentrations (MICs) using V. cholera (P4), S. typhimurium (LT2), and K. pneumonia (43816) are shown in Table 2

[1] = tested on: wild-type E. coli (W3110); experiment: Minimum inhibitory concentration (MIC), E. coli W3110; assay type: cell-based; details: LB medium, 5% DMSO, 22 hours at 37° C., MTT; for MIC: Escherichia coli, 22 h
S. typhimurium (LT2) = experiment: MIC, S. typhimurium (LT2); assay type: cell-based
Description: as §1, §2

K. pneumonia (43816) = experiment: MIC, K. pneumonia (43816); assay type: cell-based
Description: as §1, §2

P. aeruginosa PA01 = experiment: MIC, P. aeruginosa PA01; assay type: cell-based; details: Pseudomonas aeruginosa
[2] = tested on: F. novicida U112 (FNU112); experiment: microbe, parasite or virus in culture; assay type: cell-based; details: Francisella tularensis, read-out: MIC FNU112, F. novicida U112
[3] = tested on: N. gonorrhoeae 35/02 (drug-resistant strain); details: N. gonorrhoeae strain 35/02; description of the strain's resistance; cited from earlier work

Row | Compound | MIC [1] [µg/mL] | MIC (P. aeruginosa PA01; PA01) [µg/mL] | MIC [2] [µg/mL] | other results
1 | C[C@@H](O)[C@](C)(NC(=O)c1ccc(C#CC#Cc2ccc(N)cc2)cc1)C(=O)NO [Example 1, 4-((4-aminophenyl)buta-1,3-diynyl)-N-(3-hydroxy-1-(hydroxyamino)-2-methyl-1-oxobutan-2-yl)benzamide] | 0.18 (≈ 0.46 µM) | 15 (≈ 38.3 µM) |  | MIC V. cholera (P4) (V. cholera (P4)): 0.03; MIC E. coli W3110 [1]: 0.13 µg/mL (≈ 0.332 µM); MIC S. typhimurium (LT2) (S. typhimurium (LT2)): 0.144; MIC K. pneumonia (43816) (K. pneumonia (43816)): 0.6; MIC (P. aeruginosa PA01; PA01, P. aeruginosa PA01): 6.25 µg/mL (≈ 16 µM)
2 | CC(NC(=O)c1ccc(C#Cc2ccc(CN3CCOCC3)cc2)cc1)(C(=O)NO)C(C)(O)C(F)F (centres unmarked) [Example 2, N-(4,4-difluoro-3-hydroxy-1-(hydroxyamino)-2,3-dimethyl-1-oxobutan-2-yl)-4-((4-(morpholinomethyl)phenyl)ethynyl)benzamide] | 6.25 (≈ 12.5 µM) |  | 50 (≈ 99.7 µM) | 
3 | C[C@@](O)(C(F)F)[C@H](NCCCc1ccc(C#Cc2ccccc2)cc1)C(=O)NO [Example 3, (2S,3S)-4,4-difluoro-N,3-dihydroxy-3-methyl-2-((3-(4-(phenylethynyl)phenyl)propyl)amino)butanamide] | 1.6 (≈ 3.98 µM) |  |  | 
4 | C[C@@](O)(C(F)F)[C@H](NC(=O)c1ccc(C#Cc2ccc(CN3CCNCC3)cc2)cc1)C(=O)NO [Example 19] | > 1 | > 5 | 2.5 (≈ 5.14 µM) | 
5 | C[C@@](O)(C(F)F)[C@H](NC(=O)c1ccc(C#CC#CCN2CCOCC2)cc1)C(=O)NO [Example 21, N-((2S,3S)-4,4-difluoro-3-hydroxy-1-(hydroxyamino)-3-methyl-1-oxobutan-2-yl)-4-(5-morpholinopenta-1,3-diyn-1-yl)benzamide] | 0.46 (≈ 1.06 µM) | 1.56 (≈ 3.58 µM) | > 5 | 
6 | CC(C#CC#Cc1ccc(C(=O)N[C@H](C(=O)NO)[C@](C)(O)C(F)F)cc1)N1CCOCC1 (stereo partly drawn) [Example 22, N-((2S,3S)-4,4-difluoro-3-hydroxy-1-(hydroxyamino)-3-methyl-1-oxobutan-2-yl)-4-(5-morpholinohexa-1,3-diyn-1-yl)benzamide] | > 1 | 5 (≈ 11.1 µM) | > 5 | 
7 | CC(CCn1ccc(C#Cc2ccccc2)cc1=O)(C(=O)NO)S(C)(=O)=O (centres unmarked) [Example 30, N-hydroxy-2-methyl-2-(methylsulfonyl)-4-(2-oxo-4-(phenylethynyl)pyridin-1 (2H)-yl)butanamide] | < 0.78 | < 0.78 |  | 
8 | CO/N=C(\C(=O)N[C@@H]1C(=O)N2C(C(=O)O)=C(CSc3nc(=O)c(=O)[nH]n3C)CS[C@H]12)c1csc(N)n1 [ceftriaxone] |  |  |  | MIC [3]: 0.12 µg/mL (≈ 0.216 µM)
9 | penicillin |  |  |  | MIC [3]: 6 µg/mL
